From ChEMBL document CHEMBL5291721, “A preclinical secondary pharmacology resource illuminates target-adverse drug reaction associations of marketed drugs” (Nat Commun, 2023)
Where a SMILES comes first, the peptide text is derived from it. [ ]: non-standard residue; d: D form. pGlu = O=C1CC[C@@H](C(=O)O)N1; Thz = O=C(O)[C@@H]1CSCN1

How the values were obtained:
[1] = molecular target: T1, Cannabinoid receptor 1 (Homo sapiens, UniProt P21554)
[2] = molecular target: Mu-type opioid receptor (Homo sapiens, UniProt P35372)
[3] = molecular target: Melanocortin receptor 4 (Homo sapiens, UniProt P32245)
[4] = molecular target: T2, Cholecystokinin receptor type A (Homo sapiens, UniProt P32238)
T2 sequence (P32238 whole entry): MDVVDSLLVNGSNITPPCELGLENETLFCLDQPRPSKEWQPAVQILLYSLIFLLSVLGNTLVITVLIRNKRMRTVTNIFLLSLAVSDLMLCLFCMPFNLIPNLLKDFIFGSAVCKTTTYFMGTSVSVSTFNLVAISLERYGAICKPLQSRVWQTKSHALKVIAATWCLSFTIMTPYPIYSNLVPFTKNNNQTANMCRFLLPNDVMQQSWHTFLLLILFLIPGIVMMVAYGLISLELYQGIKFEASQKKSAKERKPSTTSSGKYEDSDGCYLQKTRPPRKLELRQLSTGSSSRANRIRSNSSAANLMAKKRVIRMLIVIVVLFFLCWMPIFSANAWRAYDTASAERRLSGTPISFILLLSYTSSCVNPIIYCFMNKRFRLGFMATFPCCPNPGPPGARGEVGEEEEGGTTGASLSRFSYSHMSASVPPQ

[5] = molecular target: Beta-2 adrenergic receptor (Homo sapiens, UniProt P07550)
[6] = molecular target: T3, B2 bradykinin receptor (Homo sapiens, UniProt P30411)
T3 sequence (P30411 whole entry): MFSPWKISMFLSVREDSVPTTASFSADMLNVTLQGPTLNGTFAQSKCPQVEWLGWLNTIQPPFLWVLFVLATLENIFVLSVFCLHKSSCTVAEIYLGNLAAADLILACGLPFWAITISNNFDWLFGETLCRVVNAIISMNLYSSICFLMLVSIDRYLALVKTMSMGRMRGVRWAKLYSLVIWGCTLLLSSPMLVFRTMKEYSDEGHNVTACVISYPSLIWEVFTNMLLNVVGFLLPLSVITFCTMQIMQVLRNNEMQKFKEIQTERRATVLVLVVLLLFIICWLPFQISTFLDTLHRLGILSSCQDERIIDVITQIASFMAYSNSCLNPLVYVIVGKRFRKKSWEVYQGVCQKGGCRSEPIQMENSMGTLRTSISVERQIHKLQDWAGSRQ

[7] = molecular target: T4, Adenosine receptor A1 (Homo sapiens, UniProt P30542)
T4 sequence (P30542 whole entry): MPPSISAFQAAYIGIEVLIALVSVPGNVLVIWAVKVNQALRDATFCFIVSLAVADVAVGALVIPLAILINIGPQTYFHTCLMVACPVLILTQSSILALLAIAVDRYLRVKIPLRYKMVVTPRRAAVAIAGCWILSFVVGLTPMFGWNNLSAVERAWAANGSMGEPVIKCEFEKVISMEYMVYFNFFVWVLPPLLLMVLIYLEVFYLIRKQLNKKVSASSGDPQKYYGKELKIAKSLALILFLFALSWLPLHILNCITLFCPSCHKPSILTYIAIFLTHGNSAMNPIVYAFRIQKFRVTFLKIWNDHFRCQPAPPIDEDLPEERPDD

[8] = molecular target: T5, Muscarinic acetylcholine receptor M1 (Homo sapiens, UniProt P11229); type: functional
T5 sequence (P11229 whole entry): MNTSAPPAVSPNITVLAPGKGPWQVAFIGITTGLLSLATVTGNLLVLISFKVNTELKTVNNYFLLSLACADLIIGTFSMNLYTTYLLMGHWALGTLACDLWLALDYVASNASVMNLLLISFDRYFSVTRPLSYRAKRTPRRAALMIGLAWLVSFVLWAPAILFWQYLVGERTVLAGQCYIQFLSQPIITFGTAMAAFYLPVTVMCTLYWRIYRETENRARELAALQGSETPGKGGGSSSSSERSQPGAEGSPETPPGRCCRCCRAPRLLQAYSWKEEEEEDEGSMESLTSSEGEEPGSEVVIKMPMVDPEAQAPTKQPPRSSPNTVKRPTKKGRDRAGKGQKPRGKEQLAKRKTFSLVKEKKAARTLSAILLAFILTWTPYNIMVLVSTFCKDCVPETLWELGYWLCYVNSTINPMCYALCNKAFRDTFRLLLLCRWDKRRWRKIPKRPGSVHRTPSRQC

[9] = molecular target: Muscarinic acetylcholine receptor M3 (Homo sapiens, UniProt P20309)
[10] = molecular target: T6, Alpha-1A adrenergic receptor (Homo sapiens, UniProt P35348); type: functional, cell-based
T6 sequence (P35348 whole entry): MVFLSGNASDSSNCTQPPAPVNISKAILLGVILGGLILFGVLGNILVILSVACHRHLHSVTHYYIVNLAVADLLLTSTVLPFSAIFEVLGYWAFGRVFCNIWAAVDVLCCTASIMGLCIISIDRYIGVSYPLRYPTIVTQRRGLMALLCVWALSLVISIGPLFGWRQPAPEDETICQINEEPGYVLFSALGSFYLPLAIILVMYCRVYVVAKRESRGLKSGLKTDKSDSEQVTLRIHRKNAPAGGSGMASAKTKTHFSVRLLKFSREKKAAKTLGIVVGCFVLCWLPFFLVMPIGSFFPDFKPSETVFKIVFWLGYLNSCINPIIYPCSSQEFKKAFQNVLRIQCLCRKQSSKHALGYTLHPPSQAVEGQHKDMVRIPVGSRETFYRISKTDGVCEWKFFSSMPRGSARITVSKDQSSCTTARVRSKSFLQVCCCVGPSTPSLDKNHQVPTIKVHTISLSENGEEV

[11] = molecular target: T7, Alpha-2B adrenergic receptor (Homo sapiens, UniProt P18089)
T7 sequence (P18089 whole entry): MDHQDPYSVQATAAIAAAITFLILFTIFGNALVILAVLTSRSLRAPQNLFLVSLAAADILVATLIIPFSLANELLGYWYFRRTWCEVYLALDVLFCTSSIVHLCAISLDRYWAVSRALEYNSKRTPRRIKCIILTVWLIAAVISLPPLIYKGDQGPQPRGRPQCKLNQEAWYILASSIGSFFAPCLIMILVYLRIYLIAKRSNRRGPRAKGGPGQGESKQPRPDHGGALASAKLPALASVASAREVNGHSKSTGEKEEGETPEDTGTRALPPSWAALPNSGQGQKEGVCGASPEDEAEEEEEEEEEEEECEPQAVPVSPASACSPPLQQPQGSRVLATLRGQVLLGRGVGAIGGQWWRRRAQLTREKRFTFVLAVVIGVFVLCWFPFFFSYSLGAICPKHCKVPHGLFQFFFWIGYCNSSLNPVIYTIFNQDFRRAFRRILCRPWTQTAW

[12] = molecular target: T1, Cannabinoid receptor 1; type: functional, cell-based
Note: assay procedure not described here.

Sequence of Mu-type opioid receptor (P35372 whole entry): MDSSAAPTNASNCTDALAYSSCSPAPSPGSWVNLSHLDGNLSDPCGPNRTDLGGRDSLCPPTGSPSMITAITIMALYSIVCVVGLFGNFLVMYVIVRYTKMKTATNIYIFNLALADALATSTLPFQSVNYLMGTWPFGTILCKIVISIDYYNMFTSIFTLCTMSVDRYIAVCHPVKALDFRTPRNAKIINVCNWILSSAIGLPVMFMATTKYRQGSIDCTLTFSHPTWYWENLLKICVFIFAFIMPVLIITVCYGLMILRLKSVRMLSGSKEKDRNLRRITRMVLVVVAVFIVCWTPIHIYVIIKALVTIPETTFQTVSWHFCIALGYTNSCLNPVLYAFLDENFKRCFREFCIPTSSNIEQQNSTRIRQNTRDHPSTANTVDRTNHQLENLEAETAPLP
T1 sequence (P21554 whole entry): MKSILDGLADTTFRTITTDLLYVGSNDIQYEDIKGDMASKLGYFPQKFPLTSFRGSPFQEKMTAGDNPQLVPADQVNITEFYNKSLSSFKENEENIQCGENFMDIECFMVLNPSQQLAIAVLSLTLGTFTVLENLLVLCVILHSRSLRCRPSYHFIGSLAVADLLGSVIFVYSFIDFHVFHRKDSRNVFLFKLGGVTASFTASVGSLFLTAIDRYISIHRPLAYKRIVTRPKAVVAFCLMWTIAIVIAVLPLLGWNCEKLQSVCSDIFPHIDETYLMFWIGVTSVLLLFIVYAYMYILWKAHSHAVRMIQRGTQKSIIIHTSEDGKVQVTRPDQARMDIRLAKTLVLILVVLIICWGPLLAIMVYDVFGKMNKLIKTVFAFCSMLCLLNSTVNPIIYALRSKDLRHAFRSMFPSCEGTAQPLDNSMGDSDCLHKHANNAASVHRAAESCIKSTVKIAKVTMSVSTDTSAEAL
Sequence of Melanocortin receptor 4 (P32245 whole entry): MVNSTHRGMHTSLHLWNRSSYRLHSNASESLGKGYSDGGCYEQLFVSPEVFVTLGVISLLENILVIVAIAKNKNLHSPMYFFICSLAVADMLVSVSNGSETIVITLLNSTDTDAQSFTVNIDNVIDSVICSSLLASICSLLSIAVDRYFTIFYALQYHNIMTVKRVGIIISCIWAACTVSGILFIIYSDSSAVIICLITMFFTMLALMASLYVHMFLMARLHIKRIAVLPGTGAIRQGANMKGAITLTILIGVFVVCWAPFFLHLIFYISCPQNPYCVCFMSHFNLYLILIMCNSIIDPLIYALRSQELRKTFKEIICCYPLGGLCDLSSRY
Sequence of Beta-2 adrenergic receptor (P07550 whole entry): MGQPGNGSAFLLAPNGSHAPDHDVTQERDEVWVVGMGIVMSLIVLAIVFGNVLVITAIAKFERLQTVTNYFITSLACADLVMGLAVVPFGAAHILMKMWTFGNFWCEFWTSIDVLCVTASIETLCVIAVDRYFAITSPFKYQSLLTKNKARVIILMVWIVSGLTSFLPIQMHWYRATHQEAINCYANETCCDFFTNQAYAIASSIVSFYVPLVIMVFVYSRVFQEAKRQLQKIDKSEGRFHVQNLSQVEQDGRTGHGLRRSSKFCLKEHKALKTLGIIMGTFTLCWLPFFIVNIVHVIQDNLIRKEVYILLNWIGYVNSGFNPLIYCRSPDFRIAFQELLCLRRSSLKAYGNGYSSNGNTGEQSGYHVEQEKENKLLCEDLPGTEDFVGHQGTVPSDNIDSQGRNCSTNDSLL
Sequence of Muscarinic acetylcholine receptor M3 (P20309 whole entry): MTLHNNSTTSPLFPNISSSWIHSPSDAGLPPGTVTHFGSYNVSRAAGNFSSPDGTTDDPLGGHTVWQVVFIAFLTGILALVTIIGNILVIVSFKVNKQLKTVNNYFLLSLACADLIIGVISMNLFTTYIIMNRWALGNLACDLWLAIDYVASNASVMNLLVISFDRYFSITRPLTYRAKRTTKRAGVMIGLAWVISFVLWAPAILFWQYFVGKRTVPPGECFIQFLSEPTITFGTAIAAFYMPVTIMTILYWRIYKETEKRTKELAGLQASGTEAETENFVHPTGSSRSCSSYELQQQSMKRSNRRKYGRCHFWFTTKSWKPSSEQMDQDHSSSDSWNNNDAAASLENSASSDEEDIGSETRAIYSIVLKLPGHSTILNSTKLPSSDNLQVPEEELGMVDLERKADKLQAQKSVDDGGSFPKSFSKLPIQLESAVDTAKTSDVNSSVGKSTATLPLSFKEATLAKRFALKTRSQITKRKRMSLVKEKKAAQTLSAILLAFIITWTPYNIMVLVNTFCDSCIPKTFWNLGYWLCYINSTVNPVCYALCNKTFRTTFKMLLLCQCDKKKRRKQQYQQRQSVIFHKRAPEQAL

| SMILES | AC50 [1] [µM] | AC50 [2] [µM] | AC50 [3] [µM] | AC50 [4] [µM] | AC50 [5] [µM] | AC50 [6] [µM] | AC50 [7] [µM] | AC50 [8] [µM] | AC50 [9] [µM] | AC50 [10] [µM] | AC50 [11] [µM] | AC50 [12] [µM] |
| --- | --- | --- | --- | --- | --- | --- | --- | --- | --- | --- | --- | --- |
| CCC1(CCC(C)C)C(=O)NC(=O)NC1=O [AMOBARBITAL] | > 10 | > 30 | > 10 | > 10 | > 10 | > 10 | > 10 | – | – | – | – | – |
| COc1ccc(C2C(=O)c3ccccc3C2=O)cc1 [ANISINDIONE] | > 10 | > 30 | > 10 | > 10 | > 10 | > 10 | > 10 | – | – | – | – | – |
| O=C(O)CCNC(=O)c1ccc(/N=N/c2ccc(O)c(C(=O)O)c2)cc1 [BALSALAZIDE] | > 30 | – | > 30 | > 30 | > 30 | > 30 | > 30 | – | – | – | – | – |
| Clc1ccc(CCC(Cn2ccnc2)Sc2c(Cl)cccc2Cl)cc1 (configuration not stated) [BUTOCONAZOLE] | > 30 | – | – | > 30 | > 30 | > 30 | > 30 | > 30 | 21 | > 30 | 19 | – |
| CC(C)NC[C@H](O)COc1ccc(CC(N)=O)cc1 [ESATENOLOL] | – | – | > 30 | > 30 | – | > 30 | > 30 | – | – | – | – | – |
| COc1ccc(CN2CCN(C(c3ccc(F)cc3)c3ccc(F)cc3)CC2)c(OC)c1OC [LOMERIZINE] | – | 9.7 | – | > 30 | > 30 | > 30 | > 30 | 0.94 | > 30 | 8.2 | 19 | 23 |
| CC(=O)[C@H]1CC[C@H]2[C@@H]3C[C@H](C)C4=CC(=O)CC[C@]4(C)[C@H]3[C@@H](O)C[C@]12C [MEDRYSONE] | – | > 30 | > 10 | > 10 | > 10 | > 10 | > 10 | > 10 | > 30 | > 30 | > 10 | > 30 |
| O=c1[nH]c2ccccc2n1CCCN1CCN(C(c2ccccc2)c2ccccc2)CC1 [OXATOMIDE] | – | 1.2 | – | > 30 | – | > 30 | > 30 | 5.8 | 3.5 | 4.1 | > 30 | > 30 |
| Fc1ccc([C@@H]2CCNC[C@H]2COc2ccc3c(c2)OCO3)cc1 [PAROXETINE] | 2.72 | – | > 30 | > 30 | 9.5 | > 30 | > 30 | – | – | – | – | – |
| OC[C@H]1O[C@@H](Oc2cc(O)cc(/C=C/c3ccc(O)cc3)c2)[C@H](O)[C@@H](O)[C@@H]1O [PICEID] | – | – | – | > 30 | > 30 | > 30 | > 30 | > 30 | > 30 | 19 | > 30 | > 30 |
| O=C1CC[C@@H](C(=O)N2CSC[C@H]2C(=O)O)N1 [PIDOTIMOD] ([pGlu]-[Thz]-OH) | – | – | – | > 30 | > 30 | > 30 | > 30 | > 30 | > 30 | > 30 | > 30 | > 30 |
| CCC(NC(C)C)C(O)c1ccc(O)c2[nH]c(=O)ccc12 (configuration not stated) [PROCATEROL] | – | – | – | > 30 | 0.2 | > 30 | > 30 | > 30 | > 30 | > 30 | > 30 | > 30 |
| O=c1c(O)c(-c2ccc(O)c(O)c2)oc2cc(O)cc(O)c12 [QUERCETIN] | – | – | > 30 | > 30 | – | > 30 | – | > 10 | > 30 | – | > 10 | – |
| C=CC[N+]1([C@H]2C[C@H]3[C@@H]4CC[C@H]5C[C@H](O)[C@@H](N6CCOCC6)C[C@]5(C)[C@H]4CC[C@]3(C)[C@H]2OC(C)=O)CCCC1 [ROCURONIUM] | > 30 | – | > 30 | > 30 | > 30 | > 30 | > 30 | > 30 | > 30 | > 30 | > 30 | – |
| CCCN1CCCC[C@H]1C(=O)Nc1c(C)cccc1C [ROPIVACAINE] | – | – | – | > 30 | > 30 | > 30 | > 30 | > 30 | > 30 | > 30 | > 30 | > 30 |
| CCOC(=O)[C@@H](N)Cc1ccc(-c2cc(O[C@H](c3ccc(Cl)cc3-n3ccc(C)n3)C(F)(F)F)nc(N)n2)cc1 [TELOTRISTAT ETHYL] | – | > 30 | – | 10 | – | > 30 | > 30 | > 30 | > 30 | > 30 | 29 | – |
| Cn1c(=O)c2c(ncn2CCOC(=O)C(C)(C)Oc2ccc(Cl)cc2)n(C)c1=O [THEOFIBRATE] | – | – | – | > 30 | > 30 | > 30 | > 30 | > 30 | > 30 | > 30 | > 30 | > 30 |
| CC(C(=O)O)c1ccc2c(c1)CC(=O)c1ccccc1S2 (configuration not stated) [ZALTOPROFEN] | – | – | – | > 30 | > 30 | > 30 | > 30 | > 30 | > 30 | > 30 | > 30 | > 30 |
